Calls of active or inactive are those of the source. The rule behind the calls is not given here.
Columns and labels:
[1] = biological target: T1, Polyunsaturated fatty acid 5-lipoxygenase (Homo sapiens) (UniProt P09917); assay: Inhibition of recombinant human N-terminal His-tagged 5-LOX expressed in Escherichia coli assessed as conversion of arachidonic acid to HpETEs measured for 300 secs by UV-visible spectrophotometric analysis
T1 sequence (whole entry): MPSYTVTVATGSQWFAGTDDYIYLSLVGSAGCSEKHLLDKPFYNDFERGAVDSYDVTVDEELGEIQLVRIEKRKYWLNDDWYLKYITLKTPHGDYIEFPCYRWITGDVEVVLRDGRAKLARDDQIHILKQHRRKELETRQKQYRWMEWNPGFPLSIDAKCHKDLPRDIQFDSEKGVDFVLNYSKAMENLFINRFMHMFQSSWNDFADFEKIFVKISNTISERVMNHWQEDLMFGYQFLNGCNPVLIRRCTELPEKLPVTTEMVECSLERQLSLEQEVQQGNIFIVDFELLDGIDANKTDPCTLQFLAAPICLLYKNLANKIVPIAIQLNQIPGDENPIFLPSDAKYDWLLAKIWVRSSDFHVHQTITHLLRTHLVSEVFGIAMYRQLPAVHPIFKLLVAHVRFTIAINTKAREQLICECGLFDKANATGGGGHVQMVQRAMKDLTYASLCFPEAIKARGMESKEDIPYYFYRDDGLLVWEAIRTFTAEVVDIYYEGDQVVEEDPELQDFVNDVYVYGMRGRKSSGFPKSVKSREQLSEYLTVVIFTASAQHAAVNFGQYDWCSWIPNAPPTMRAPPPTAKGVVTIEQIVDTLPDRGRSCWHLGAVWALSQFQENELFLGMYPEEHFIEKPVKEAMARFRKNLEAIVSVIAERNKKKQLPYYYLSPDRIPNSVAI

[2] = biological target: T2, Polyunsaturated fatty acid lipoxygenase ALOX15 (Homo sapiens) (UniProt P16050); assay: Inhibition of recombinant human N-terminal His-tagged 15-LOX-1 expressed in Escherichia coli using arachidonic acid as substrate measured every 2 min intervals for 20 mins by fluorescence analysis
T2 sequence (whole entry): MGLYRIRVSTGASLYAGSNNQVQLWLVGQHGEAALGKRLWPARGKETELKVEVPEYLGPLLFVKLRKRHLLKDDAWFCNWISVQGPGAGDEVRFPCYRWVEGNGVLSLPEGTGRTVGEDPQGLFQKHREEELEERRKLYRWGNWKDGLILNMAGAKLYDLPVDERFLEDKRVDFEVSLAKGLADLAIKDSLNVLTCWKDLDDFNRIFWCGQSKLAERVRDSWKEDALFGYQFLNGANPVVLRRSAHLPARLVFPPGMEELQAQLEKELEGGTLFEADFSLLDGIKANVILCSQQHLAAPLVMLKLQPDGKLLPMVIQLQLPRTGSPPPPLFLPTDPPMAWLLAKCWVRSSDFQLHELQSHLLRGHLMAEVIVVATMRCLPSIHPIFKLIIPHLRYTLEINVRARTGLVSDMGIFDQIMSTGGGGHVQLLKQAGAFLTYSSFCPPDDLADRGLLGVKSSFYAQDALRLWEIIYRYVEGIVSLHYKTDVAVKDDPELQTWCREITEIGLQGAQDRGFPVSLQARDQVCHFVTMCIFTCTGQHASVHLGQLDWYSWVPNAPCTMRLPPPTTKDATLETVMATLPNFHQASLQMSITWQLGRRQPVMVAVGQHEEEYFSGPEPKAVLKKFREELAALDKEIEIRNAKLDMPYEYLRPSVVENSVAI

Mus musculus [3] = assay: Anti-inflammatory activity in LPS-induced C57BL/6 mouse model of acute lung injury assessed as reduction in total number of leucocytes in BALF at 25 mg/kg, ip pretreated for 1 hr followed LPS challenge measured after 24 hrs; type: functional, organism-based
Mus musculus [4] = assay: Anti-inflammatory activity in LPS-induced C57BL/6 mouse model of acute lung injury assessed as reduction in protein concentration in BALF at 25 mg/kg, ip pretreated for 1 hr followed LPS challenge measured after 24 hrs; type: functional, organism-based
Mus musculus [5] = assay: Anti-inflammatory activity in BLM-induced C57BL/6 mouse model of acute lung neutrophilic inflammation assessed as reduction in number of neutrophils in BALF at 10 and 25 mg/kg, ip qd for 7 days post BLM challenge measured on day 7; type: functional, organism-based
Mus musculus [6] = assay: Anti-inflammatory activity in BLM-induced C57BL/6 mouse model of acute lung neutrophilic inflammation assessed as reduction in number of lymphocytes in BALF at 10 and 25 mg/kg, ip qd for 7 days post BLM challenge measured on day 7; type: functional, organism-based
Mus musculus [7] = assay: Anti-inflammatory activity in BLM-induced C57BL/6 mouse model of acute lung injury assessed as reduction in IL-1beta mRNA level in BALF compound administered intraperitoneally once daily for 7 days post BLM challenge measured on day 7 by qRT-PCR method; type: functional
Mus musculus [8] = assay: Anti-inflammatory activity in BLM-induced C57BL/6 mouse model of acute lung injury assessed as reduction in IL-6 mRNA level in BALF compound administered intraperitoneally once daily for 7 days post BLM challenge measured on day 7 by qRT-PCR method; type: functional
[9] = biological target: T3, Leukotriene A-4 hydrolase (Homo sapiens) (UniProt P09960)
T3 sequence (whole entry): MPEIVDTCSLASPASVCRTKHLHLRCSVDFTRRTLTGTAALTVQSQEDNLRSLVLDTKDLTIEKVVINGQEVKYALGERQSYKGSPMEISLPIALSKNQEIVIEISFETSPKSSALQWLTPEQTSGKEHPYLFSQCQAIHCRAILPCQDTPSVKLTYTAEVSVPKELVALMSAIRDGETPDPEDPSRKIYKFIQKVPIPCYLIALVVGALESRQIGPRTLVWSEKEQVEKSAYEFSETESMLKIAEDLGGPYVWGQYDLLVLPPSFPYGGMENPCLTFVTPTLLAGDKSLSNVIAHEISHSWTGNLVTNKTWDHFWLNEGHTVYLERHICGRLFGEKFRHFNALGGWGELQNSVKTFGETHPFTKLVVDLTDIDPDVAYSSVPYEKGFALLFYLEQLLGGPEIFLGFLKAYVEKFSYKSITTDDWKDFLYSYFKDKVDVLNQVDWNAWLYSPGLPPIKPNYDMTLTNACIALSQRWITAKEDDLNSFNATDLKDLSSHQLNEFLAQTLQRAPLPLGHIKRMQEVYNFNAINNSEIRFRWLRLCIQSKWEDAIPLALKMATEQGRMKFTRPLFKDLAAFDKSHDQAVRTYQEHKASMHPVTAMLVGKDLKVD
Description: Binding affinity to recombinant human LTA4H hydrolase assessed as change in melting temperature at 50 uM by SYPRO orange dye-based thermofluor assay

[10] = biological target: T3, Leukotriene A-4 hydrolase (Homo sapiens); conditions: at 10 µM
Description: Inhibition of recombinant human LTA4H Epoxide Hydrolase expressed in Escherichia coli BL21 (DE3) pLysS at 10 uM preincubated for 10 mins followed by addition of LTA4 as substrate measured after 15 mins by reverse-phase HPLC analysis

Compound	INH [1]	INH [2]	Activity (Mus musculus [3])	Activity (Mus musculus [4])	Activity (Mus musculus [5])	Activity (Mus musculus [6])	Activity (Mus musculus [7])	Activity (Mus musculus [8])	ΔTm [9]	inhibition [10]
CN(C)c1ccc(C(=O)NCCCCCCC(=O)NO)cc1	> 50 µM	> 50 µM	Active	Active	Active	Active	Dose-dependent effect	Dose-dependent effect	2.35 °C	> 50%
O=C(CCCCCCC(=O)Nc1ccccc1)NO [VORINOSTAT]	> 50 µM	> 50 µM	Active	Active	Active	Active	Dose-dependent effect	Dose-dependent effect	1.47 °C	> 50%
